Peptide text beside a SMILES is read from it.
Experiment: Corneal penetration assay (aqueous humor level after eye drop)
Format: in vivo, mouse
Settings: for Total / Measure concentration: mouse aqueous humor, UPLC-MS; for Measure concentration: sample mixed with 1 ml 0.1% formic acid
Procedure: The apoEdp peptide (LRKLRKRLLLRKLRKRLL) is rich in cationic amino acids lysine and arginine. ApoEdp is more cationic than HIV-1 Tat cell penetrating peptide (Table 1). We hypothesized that apoEdp could act as a corneal penetrating peptide.
Mouse eyes were treated with 1% apoEdp drops. At 0, 1, 2, 3, hours post-treatment, mice were sacrificed and eyes were enucleated. The globes were washed with sterile PBS three times and aqueous humor was aspirated using a 27-gauge needle and 1 mL syringe. The mouse aqueous humor samples were mixed with 1 ml of 0.1% formic acid solution and allowed to stand for 5 minutes. The samples were filtered with a 0.2-micron filter and analyzed using a Waters Acquity UPLC system (Milford, MA) with mass spectrophotometrical detection. […] These peaks included 483.9 m/z 604.4 m/z, and 805.6 m/z. We used the […] peak for the analysis because it was the strongest. For the UPLC analysis, we used a BEH300 C4 column 2.1 mm×100 mm×1.7 µm. A 2 component mobile phase was used with component 1:0.1% formic Acid, and Component 2: Acetonitrile with 0.1% formic acid. The flow rate was 0.2 ml/min and gradient elution was used with a linear gradient.

[1] = 2 hours after 1% apoEdp eye drop, left eye
[2] = 2 hours after 1% apoEdp eye drop, right eye
[3] = 3 hours after 1% apoEdp eye drop, left eye
[4] = 3 hours after 1% apoEdp eye drop, right eye

time to reach the anterior chamber of the eye (applied topically (1% eye drop), mouse eyes): ≤ 3 h | Total [1]: 3.89 ng | Measure concentration [1]: 0.004 µg/mL | Total [2]: 5.9 ng | Measure concentration [2]: 0.006 µg/mL | Total [3]: 58.08 ng | Measure concentration [3]: 0.058 µg/mL | Total [4]: 36.3 ng | Measure concentration [4]: 0.036 µg/mL
SMILES: CC(=O)N[C@@H](CC(C)C)C(=O)N[C@@H](CCCNC(=N)N)C(=O)N[C@@H](CCCCN)C(=O)N[C@@H](CC(C)C)C(=O)N[C@@H](CCCNC(=N)N)C(=O)N[C@@H](CCCCN)C(=O)N[C@@H](CCCNC(=N)N)C(=O)N[C@@H](CC(C)C)C(=O)N[C@@H](CC(C)C)C(=O)N[C@@H](CC(C)C)C(=O)N[C@@H](CCCNC(=N)N)C(=O)N[C@@H](CCCCN)C(=O)N[C@@H](CC(C)C)C(=O)N[C@@H](CCCNC(=N)N)C(=O)N[C@@H](CCCCN)C(=O)N[C@@H](CCCNC(=N)N)C(=O)N[C@@H](CC(C)C)C(=O)N[C@@H](CC(C)C)C(N)=O [apoEdp] (Ac-LRKLRKRLLLRKLRKRLL-NH2)
